Patent publication EP0377044B1, “PROTECTIVE AGENT FOR RADIATION HAZARD” (MITSUI TOATSU CHEMICALS, Inc., priority 1988, dated 1989)
Square brackets hold non-standard residues; d marks the D form. Peptide text beside a SMILES is read from it. pGlu = O=C1CC[C@@H](C(=O)O)N1

Tests used:
[1] = tested on: radiation-induced cancers in mice; experiment: Development of radiation-induced cancers in irradiated mice; format: in vivo; settings: administration over a certain period
[2] = tested on: mice were subjected to 600R X-radiation / 400R X-radiation; experiment: Blood test in X-irradiated mice (600R and 400R); format: in vivo; settings: for Blood parameters HCT / Blood parameters HGB / Blood parameters PLT / Blood parameters RBC / Blood parameters RET / Blood parameters WBC: pre-administration with 100 µg; for Blood parameters HCT: hematocrit value; for Blood parameters HGB: hemoglobin; for Blood parameters PLT: number of blood platelet; for Blood parameters RBC: number of red blood cells; for Blood parameters RET: number of reticulocytes; for Blood parameters WBC: number of white blood cells
Experimental: Independently of the irraditation carried out in Experimental Example 3 with mice for life/death observation, mice were subjected to 600R X-radiation to conduct a blood test on a dayly basis. Another group of mice was prepared and subjected to 400R X-radiation. Each of the 600R- and 400R-irradiated groups was further divided into two, one `group being for pre-administration with 100 µg of the above mentioned medicament and the other group serving as a control. Samples of blood were taken every day from each mouse and tested for the number white blood cells (WBC), that of red blood cells (RBC), that of reticulocytes (RET), that of blood platelet (PLT), that of hemoglobin (HGB) and hematocrit value (HCT).

[3] = tested on: mice; experiment: Whole body X-irradiation, % survival over thirty days (general description); format: in vivo
Experimental: The effect of the radioprotective agent of the present invention is confirmed by the experiments as described below. Thus, mice, rats, guinea pigs or the like mammals were subjected to whole body irradiation, using a X-radiation unit (Shimazu Seisaku-sho, Shin-Ai 250 II), to determine % survival over a period of thirty days. In carrying out these experiments, given amounts of the nonapeptide were administered by different routes of administration, such as intraperitoneal, intravenous, intramuscular, subcutaneous or oral route of administration, either every day or every other day over a given period of time from before or from immediately after the irradiation, to measure the body-weight of the animals and observe whether they were alive or dead.

[4] = tested on: animals subjected to whole body irradiation with lethal or sub-lethal doses; experiment: Recovery of hematopoietic dysfunctions and immune responses after whole body irradiation (general description); format: in vivo
Experimental: On the other hand, animals were subjected to whole body irradiation with lethal or sub-lethal doses and changes with the lapse of time in the number of blood cells were measured for given periods of time in order to check the medicament for the promotive effect on the recovery of hematopoietic dysfunctions. Blood cells used as index included red blood cells, reticulocytes, white blood cells such as lymphocytes and neutrophils, platelets, hemoglobins, hematocrit and the like. […] Thus, as is evident from these observations, the medicament of the present invention is believed to act on hematopoietic organs, e.g. bone marrow and spleen, and exert the life span-extending or life-saving effect due to its inhibitory or recovery-promoting effect on hematopoietic dysfunctions, and it is therefore valuable as a preventive and therapeutic agent against radiation damages.

[5] = tested on: ddy male mice; experiment: Toxicity test, repeated subcutaneous administration to mice; format: in vivo; settings: for toxicity: five ddy male mice of 5 weeks old
From the text: (§1) Thus, the medicament of the present invention is a safe medicament of extremely low toxicity and can be administered for a long period of time.

[6] = tested on: cancer-carrying mice; experiment: Radiotherapeutic experiments on cancer-carrying mice; format: in vivo; settings: pre- or post-irradiation administration
[7] = tested on: mice irradiated with 800R X-rays; experiment: Survival of mice after whole body irradiation with 800R X-rays; format: in vivo, C3H/He mice; settings: for The number of days and survivals after X-radiation 10 (days) / The number of days and survivals after X-radiation 11 (days) / The number of days and survivals after X-radiation 12 (days) / The number of days and survivals after X-radiation 13 (days) / The number of days and survivals after X-radiation 14 (days) / The number of days and survivals after X-radiation 15 (days) / The number of days and survivals after X-radiation 16 (days) / The number of days and survivals after X-radiation 17 (days) / The number of days and survivals after X-radiation 18 (days) / The number of days and survivals after X-radiation 19 (days) / The number of days and survivals after X-radiation 20 (days) / The number of days and survivals after X-radiation 25 (days) / The number of days and survivals after X-radiation 30 (days): 14 days; for The number of days and survivals after X-radiation 10 (days): day 10, 15 animals used; for The number of days and survivals after X-radiation 11 (days): day 11, 15 animals used; for The number of days and survivals after X-radiation 12 (days): day 12, 15 animals used; for The number of days and survivals after X-radiation 13 (days): day 13, 15 animals used; for The number of days and survivals after X-radiation 14 (days): day 14, 15 animals used; for The number of days and survivals after X-radiation 15 (days): day 15, 15 animals used; for The number of days and survivals after X-radiation 16 (days): day 16, 15 animals used; for The number of days and survivals after X-radiation 17 (days): day 17, 15 animals used; for The number of days and survivals after X-radiation 18 (days): day 18, 15 animals used; for The number of days and survivals after X-radiation 19 (days): day 19, 15 animals used; for The number of days and survivals after X-radiation 20 (days): day 20, 15 animals used; for The number of days and survivals after X-radiation 25 (days): day 25, 15 animals used; for The number of days and survivals after X-radiation 30 (days): day 30, 15 animals used
Experimental: (§2) Male, 10 week-old C3H/He mice were used and groups of 10 - 15 animals each were prepared.
(§3) The mice were subjected to whole body irradiation for 8 minutes using a X-radiation unit (manufactured by Shimazu Seisaku-sho, Shin-Ai 250 II). These animals received, once per day, subcutaneous administration of 100 µg of FTS·CH₃COOH·2H₂O as used in Example 1 for consecutive 14 days. For a pre-administered group, the administration started two days before the irradiation. For a post-administered group, the first administration was effected immediately after the irradiation. As control groups, one group which received only once subcutaneous administration of 1 KE of Picibanil immediately after the irradiation and another group which received every day administration of physiological saline were prepared.

[8] = tested on: Wister rats; experiment: Toxicity test, repeated subcutaneous administration to rats; format: in vivo
From the text: as §1

[9] = tested on: mice irradiated with 900R X-rays; experiment: Survival of mice after whole body irradiation with 900R X-rays; format: in vivo
Experimental: as §2, §3
In the same manner as in Experimental Example 1, mice were subcutaneously administered, after X-radiation for 9 minutes, with 100 µg/day of FTS·CH₃COOH·2H₂O, once a day and twelve times in all, i.e. on the zero, 1st, 2nd, 3rd, 4th, 5th, 7th, 8th, 9th, 10th, 11th and 12th days.

[10] = post-administration 100 µg s.c. once per day, from immediately after irradiation
[11] = pre-administration 100 µg s.c. once per day, from two days before irradiation

C[C@H](NC(=O)[C@@H]1CCC(=O)N1)C(=O)N[C@@H](CCCCN)C(=O)N[C@@H](CO)C(=O)N[C@@H](CCC(N)=O)C(=O)NCC(=O)NCC(=O)N[C@@H](CO)C(=O)N[C@@H](CC(N)=O)C(=O)O [medicament, pGlu-Ala-Lys-Ser-Gln-Gly-Gly-Ser-Asn] ([pGlu]AKSQGGSN-OH)
development of radiation-induced cancers [1]: inhibits the development of radiation-induced cancers in mice | Blood parameters HCT ([2]; 400R X-rays, on the 14th day): 29.8±1.4 | Blood parameters HGB ([2]; 400R X-rays, on the 14th day): 8.8±0.3 | Blood parameters PLT ([2]; 400R X-rays, on the 14th day): 240.6±14.3 | Blood parameters RBC ([2]; 400R X-rays, on the 14th day): 522.7±21.7 | Blood parameters RET ([2]; 400R X-rays, on the 14th day): 30.0±6.5 | Blood parameters WBC ([2]; 400R X-rays, on the 14th day): 8.7±0.4 | Blood parameters HCT ([2]; 600R X-rays, on the 7th day): 39.1±5.5 | Blood parameters HGB ([2]; 600R X-rays, on the 7th day): 12.3±1.9 | Blood parameters PLT ([2]; 600R X-rays, on the 7th day): 372.0±174.7 | Blood parameters RBC ([2]; 600R X-rays, on the 7th day): 691.8±96.1 | Blood parameters RET ([2]; 600R X-rays, on the 7th day): 24.6±10.9 | Blood parameters WBC ([2]; 600R X-rays, on the 7th day): 34.2±25.2 | blood parameters (WBC, RBC, RET, PLT, HGB, HCT) ([2]; 600R or 400R X-radiation, pre-administration 100 µg, compared with control group, summary of Table 4): apparently improved | inhibition of body-weight loss ([3]; compared with the control group): significant inhibition of body-weight loss | % survival ([3]; over a period of thirty days, depending on the dose of radiation, all mice in control group died): 40 - 100% | life span-extending effect ([3]; versus control group): significant or marked life span-extending effect | immune responses of immunocytes (spleen cells response to Con A, thymus cells reactivity to IL-1) ([4]; irradiated animals, examined every day, versus control group): apparently higher than those for the control group | immunocytes capabilities of humoral factor production (IL-1 by peritoneal macrophage, CSF by spleen cells and peritoneal macrophage) ([4]; irradiated animals, versus control group): superior to the control group | reduction of blood cells due to irradiation ([4]; whole body irradiation with lethal or sub-lethal doses, red blood cells, reticulocytes, white blood cells, platelets, hemoglobins, hematocrit): markedly inhibited | toxicity ([5]; 50 mg/kg subcutaneously for consecutive 14 days): No toxicity was observed | toxicity (external check) ([5]; 100 mg/kg subcutaneously every day for consecutive 14 days, mice): no abnormal symptom was found by external check | toxicity ([5]; 100 mg/kg subcutaneously for consecutive 14 days): No toxicity was observed | anti-cancer effect of radiotherapy [6]: potentiated | dying of mice due to irradiation ([7]; 100 µg s.c. once per day for 14 days, summary of Table 1): clearly prevents or inhibits the dying of mice due to irradiation | The number of days and survivals after X-radiation 10 (days) [7, 10]: 15 | The number of days and survivals after X-radiation 11 (days) [7, 10]: 15 | The number of days and survivals after X-radiation 12 (days) [7, 10]: 15 | The number of days and survivals after X-radiation 13 (days) [7, 10]: 14 | The number of days and survivals after X-radiation 14 (days) [7, 10]: 13 | The number of days and survivals after X-radiation 15 (days) [7, 10]: 10 | The number of days and survivals after X-radiation 16 (days) [7, 10]: 8 | The number of days and survivals after X-radiation 17 (days) [7, 10]: 6 | The number of days and survivals after X-radiation 18 (days) [7, 10]: 6 | The number of days and survivals after X-radiation 19 (days) [7, 10]: 6 | The number of days and survivals after X-radiation 20 (days) [7, 10]: 6 | The number of days and survivals after X-radiation 25 (days) [7, 10]: 5 | The number of days and survivals after X-radiation 30 (days) [7, 10]: 5 | The number of days and survivals after X-radiation 10 (days) [7, 11]: 15 | The number of days and survivals after X-radiation 11 (days) [7, 11]: 15 | The number of days and survivals after X-radiation 12 (days) [7, 11]: 15 | The number of days and survivals after X-radiation 13 (days) [7, 11]: 15 | The number of days and survivals after X-radiation 14 (days) [7, 11]: 15 | The number of days and survivals after X-radiation 15 (days) [7, 11]: 14 | The number of days and survivals after X-radiation 16 (days) [7, 11]: 13 | The number of days and survivals after X-radiation 17 (days) [7, 11]: 11 | The number of days and survivals after X-radiation 18 (days) [7, 11]: 11 | The number of days and survivals after X-radiation 19 (days) [7, 11]: 11 | The number of days and survivals after X-radiation 20 (days) [7, 11]: 9 | The number of days and survivals after X-radiation 25 (days) [7, 11]: 9 | The number of days and survivals after X-radiation 30 (days) [7, 11]: 9 | toxicity (external behavior observation, biochemical diagnosis of sera, pathological anatomy) ([8]; 30 mg/kg subcutaneously every day for consecutive 21 days, rats): no abnormal symptom was found in external behavior observation and biochemical diagnosis of sera and in a result of pathological anatomy | toxicity ([8]; 30 mg/kg subcutaneously for consecutive 21 days, ten Wister rats of 5 weeks old): No toxicity was observed | The number of days and survivals after X-radiation 9 (days) ([9]; 900R X-rays, post-administration 100 µg/day s.c., twelve times in all (days 0-5, 7-12), day 9, 15 animals used): 15 | The number of days and survivals after X-radiation 10 (days) ([9]; 900R X-rays, post-administration 100 µg/day s.c., twelve times in all (days 0-5, 7-12), day 10, 15 animals used): 13 | The number of days and survivals after X-radiation 11 (days) ([9]; 900R X-rays, post-administration 100 µg/day s.c., twelve times in all (days 0-5, 7-12), day 11, 15 animals used): 12 | The number of days and survivals after X-radiation 12 (days) ([9]; 900R X-rays, post-administration 100 µg/day s.c., twelve times in all (days 0-5, 7-12), day 12, 15 animals used): 12 | The number of days and survivals after X-radiation 13 (days) ([9]; 900R X-rays, post-administration 100 µg/day s.c., twelve times in all (days 0-5, 7-12), day 13, 15 animals used): 7 | The number of days and survivals after X-radiation 14 (days) ([9]; 900R X-rays, post-administration 100 µg/day s.c., twelve times in all (days 0-5, 7-12), day 14, 15 animals used): 4 | The number of days and survivals after X-radiation 15 (days) ([9]; 900R X-rays, post-administration 100 µg/day s.c., twelve times in all (days 0-5, 7-12), day 15, 15 animals used): 3 | The number of days and survivals after X-radiation 16 (days) ([9]; 900R X-rays, post-administration 100 µg/day s.c., twelve times in all (days 0-5, 7-12), day 16, 15 animals used): 2 | The number of days and survivals after X-radiation 18 (days) ([9]; 900R X-rays, post-administration 100 µg/day s.c., twelve times in all (days 0-5, 7-12), day 18, 15 animals used): 2 | The number of days and survivals after X-radiation 20 (days) ([9]; 900R X-rays, post-administration 100 µg/day s.c., twelve times in all (days 0-5, 7-12), day 20, 15 animals used): 2 | The number of days and survivals after X-radiation 21 (days) ([9]; 900R X-rays, post-administration 100 µg/day s.c., twelve times in all (days 0-5, 7-12), day 21, 15 animals used): 1 | The number of days and survivals after X-radiation 23 (days) ([9]; 900R X-rays, post-administration 100 µg/day s.c., twelve times in all (days 0-5, 7-12), day 23, 15 animals used): 0 | life span extension ([9]; 900R, 100 µg/day s.c. twelve times after X-radiation, summary of Table 2): exhibited a life span extension
